# Legend:
# [1] = target: T1, Tyrosine-protein phosphatase non-receptor type 1 (Homo sapiens, UniProt P18031); assay: Inhibition of recombinant PTP1B (unknown origin) using OMFP as substrate after 1 hr by fluorescence assay
# T1 sequence (P18031 whole entry): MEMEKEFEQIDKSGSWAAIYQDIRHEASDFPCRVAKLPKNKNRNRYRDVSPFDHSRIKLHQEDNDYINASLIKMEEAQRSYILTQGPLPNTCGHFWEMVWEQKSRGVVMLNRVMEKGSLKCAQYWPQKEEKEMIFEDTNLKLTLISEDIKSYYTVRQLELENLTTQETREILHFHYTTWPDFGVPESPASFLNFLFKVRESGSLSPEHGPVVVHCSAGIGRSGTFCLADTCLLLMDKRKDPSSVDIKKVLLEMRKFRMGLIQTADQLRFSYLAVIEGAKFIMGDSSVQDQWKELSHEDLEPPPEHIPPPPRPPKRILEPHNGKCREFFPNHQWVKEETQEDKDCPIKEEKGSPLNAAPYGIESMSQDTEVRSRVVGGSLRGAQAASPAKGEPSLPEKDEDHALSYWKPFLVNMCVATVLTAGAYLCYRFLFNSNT
# [2] = target: T2, Receptor-type tyrosine-protein phosphatase C (Homo sapiens, UniProt P08575); assay: Inhibition of recombinant CD45 (unknown origin) using OMFP as substrate after 1 hr by fluorescence assay
# T2 sequence (P08575 whole entry): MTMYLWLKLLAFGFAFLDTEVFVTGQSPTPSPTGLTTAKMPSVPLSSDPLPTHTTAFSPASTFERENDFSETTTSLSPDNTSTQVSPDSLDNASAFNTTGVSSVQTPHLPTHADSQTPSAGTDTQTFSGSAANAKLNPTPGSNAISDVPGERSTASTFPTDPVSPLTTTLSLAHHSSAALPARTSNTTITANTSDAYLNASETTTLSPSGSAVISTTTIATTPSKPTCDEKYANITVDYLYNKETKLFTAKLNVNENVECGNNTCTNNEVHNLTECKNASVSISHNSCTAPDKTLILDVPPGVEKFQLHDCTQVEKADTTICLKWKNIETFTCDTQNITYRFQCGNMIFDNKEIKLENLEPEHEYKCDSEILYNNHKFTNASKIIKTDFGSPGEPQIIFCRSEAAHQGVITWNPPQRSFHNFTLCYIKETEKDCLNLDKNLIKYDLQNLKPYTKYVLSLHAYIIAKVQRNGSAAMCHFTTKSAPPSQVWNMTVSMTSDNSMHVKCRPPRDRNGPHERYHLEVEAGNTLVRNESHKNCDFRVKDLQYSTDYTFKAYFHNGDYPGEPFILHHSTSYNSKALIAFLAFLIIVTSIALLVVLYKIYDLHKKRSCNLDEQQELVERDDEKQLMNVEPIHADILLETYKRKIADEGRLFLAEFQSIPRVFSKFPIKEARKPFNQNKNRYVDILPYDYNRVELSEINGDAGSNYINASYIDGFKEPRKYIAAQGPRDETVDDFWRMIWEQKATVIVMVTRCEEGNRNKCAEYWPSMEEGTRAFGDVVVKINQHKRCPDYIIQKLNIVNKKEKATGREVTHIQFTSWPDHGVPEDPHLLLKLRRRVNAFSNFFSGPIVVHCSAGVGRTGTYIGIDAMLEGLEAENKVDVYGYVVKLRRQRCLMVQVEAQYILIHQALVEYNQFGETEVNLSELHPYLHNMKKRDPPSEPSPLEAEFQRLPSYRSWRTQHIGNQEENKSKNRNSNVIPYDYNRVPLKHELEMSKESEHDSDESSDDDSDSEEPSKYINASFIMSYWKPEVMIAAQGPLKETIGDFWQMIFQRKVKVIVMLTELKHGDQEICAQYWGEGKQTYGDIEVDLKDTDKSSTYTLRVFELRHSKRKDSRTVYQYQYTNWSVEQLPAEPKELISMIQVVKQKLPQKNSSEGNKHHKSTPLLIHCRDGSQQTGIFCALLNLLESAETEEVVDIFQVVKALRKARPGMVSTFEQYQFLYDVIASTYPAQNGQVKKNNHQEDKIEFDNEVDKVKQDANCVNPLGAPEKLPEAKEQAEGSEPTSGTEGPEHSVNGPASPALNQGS
# [3] = target: T3, Dual specificity protein phosphatase 22 (Homo sapiens, UniProt Q9NRW4); assay: Inhibition of recombinant VHX (unknown origin) using OMFP as substrate after 1 hr by fluorescence assay
# T3 sequence (Q9NRW4 whole entry): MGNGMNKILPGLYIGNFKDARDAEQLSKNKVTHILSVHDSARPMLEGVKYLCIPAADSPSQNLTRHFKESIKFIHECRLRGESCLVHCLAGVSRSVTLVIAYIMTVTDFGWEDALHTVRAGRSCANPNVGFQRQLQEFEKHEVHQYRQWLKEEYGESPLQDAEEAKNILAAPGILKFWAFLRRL
# [4] = target: T4, Dual specificity protein phosphatase 6 (Homo sapiens, UniProt Q16828); assay: Inhibition of recombinant MKP3 (unknown origin) using OMFP as substrate after 1 hr by fluorescence assay
# T4 sequence (Q16828 whole entry): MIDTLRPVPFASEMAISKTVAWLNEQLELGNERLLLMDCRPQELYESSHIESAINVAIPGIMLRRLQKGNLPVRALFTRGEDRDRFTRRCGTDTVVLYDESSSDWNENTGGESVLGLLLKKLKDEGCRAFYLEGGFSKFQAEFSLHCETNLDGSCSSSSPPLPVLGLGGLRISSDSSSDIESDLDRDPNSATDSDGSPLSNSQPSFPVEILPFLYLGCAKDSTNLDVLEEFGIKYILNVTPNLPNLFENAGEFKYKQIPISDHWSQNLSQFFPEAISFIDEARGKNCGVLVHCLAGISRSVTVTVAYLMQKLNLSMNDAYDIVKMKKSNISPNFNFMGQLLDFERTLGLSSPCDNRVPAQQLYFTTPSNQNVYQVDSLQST
# [5] = target: T5, Tyrosine-protein phosphatase non-receptor type 22 (Homo sapiens, UniProt Q9Y2R2); assay: Inhibition of recombinant LYP (unknown origin) using OMFP as substrate after 1 hr by fluorescence assay
# T5 sequence (Q9Y2R2 whole entry): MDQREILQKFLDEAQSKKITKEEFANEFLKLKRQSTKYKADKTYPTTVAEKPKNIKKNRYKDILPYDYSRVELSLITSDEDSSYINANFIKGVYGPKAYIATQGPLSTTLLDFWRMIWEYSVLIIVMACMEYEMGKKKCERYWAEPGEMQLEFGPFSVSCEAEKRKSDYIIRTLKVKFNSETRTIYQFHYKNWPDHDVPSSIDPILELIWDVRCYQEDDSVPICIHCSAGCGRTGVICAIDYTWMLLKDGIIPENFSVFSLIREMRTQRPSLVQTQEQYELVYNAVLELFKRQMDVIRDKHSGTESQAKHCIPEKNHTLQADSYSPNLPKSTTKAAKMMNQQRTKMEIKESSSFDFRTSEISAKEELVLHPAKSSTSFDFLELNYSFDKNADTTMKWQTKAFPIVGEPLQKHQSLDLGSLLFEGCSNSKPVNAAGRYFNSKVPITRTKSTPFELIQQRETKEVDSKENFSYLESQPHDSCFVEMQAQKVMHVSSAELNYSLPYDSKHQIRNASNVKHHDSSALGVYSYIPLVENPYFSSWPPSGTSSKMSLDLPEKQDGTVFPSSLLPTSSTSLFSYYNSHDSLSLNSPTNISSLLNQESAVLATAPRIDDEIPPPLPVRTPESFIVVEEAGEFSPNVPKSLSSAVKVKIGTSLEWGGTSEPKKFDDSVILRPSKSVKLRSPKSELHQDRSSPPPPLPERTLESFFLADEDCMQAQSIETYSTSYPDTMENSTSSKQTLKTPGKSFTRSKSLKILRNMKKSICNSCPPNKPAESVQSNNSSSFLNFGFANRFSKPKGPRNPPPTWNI
# [6] = target: T6, Receptor-type tyrosine-protein phosphatase R (Homo sapiens, UniProt Q15256); assay: Inhibition of recombinant PTP-SL (unknown origin) using OMFP as substrate after 1 hr by fluorescence assay
# T6 sequence (Q15256 whole entry): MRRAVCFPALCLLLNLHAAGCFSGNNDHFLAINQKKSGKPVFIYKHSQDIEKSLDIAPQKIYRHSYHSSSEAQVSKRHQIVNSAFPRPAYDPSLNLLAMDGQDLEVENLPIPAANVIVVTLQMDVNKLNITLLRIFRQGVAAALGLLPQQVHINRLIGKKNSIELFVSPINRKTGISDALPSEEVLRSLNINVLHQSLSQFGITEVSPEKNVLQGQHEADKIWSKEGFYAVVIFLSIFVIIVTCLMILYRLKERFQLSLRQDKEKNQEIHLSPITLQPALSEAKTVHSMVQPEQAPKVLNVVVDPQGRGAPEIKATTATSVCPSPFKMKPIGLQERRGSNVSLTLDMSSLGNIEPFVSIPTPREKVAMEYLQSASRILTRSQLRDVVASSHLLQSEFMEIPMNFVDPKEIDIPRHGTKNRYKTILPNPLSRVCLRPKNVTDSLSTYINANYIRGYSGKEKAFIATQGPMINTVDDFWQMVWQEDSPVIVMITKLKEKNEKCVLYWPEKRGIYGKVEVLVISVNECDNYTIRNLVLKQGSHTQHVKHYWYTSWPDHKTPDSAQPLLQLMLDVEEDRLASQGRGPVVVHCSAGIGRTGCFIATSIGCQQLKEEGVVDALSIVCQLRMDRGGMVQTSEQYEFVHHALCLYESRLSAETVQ
# [7] = target: T7, Tyrosine-protein phosphatase non-receptor type 2 (Homo sapiens, UniProt P17706); assay: Inhibition of recombinant TCPTP (unknown origin) using OMFP as substrate after 1 hr by fluorescence assay
# T7 sequence (P17706 whole entry): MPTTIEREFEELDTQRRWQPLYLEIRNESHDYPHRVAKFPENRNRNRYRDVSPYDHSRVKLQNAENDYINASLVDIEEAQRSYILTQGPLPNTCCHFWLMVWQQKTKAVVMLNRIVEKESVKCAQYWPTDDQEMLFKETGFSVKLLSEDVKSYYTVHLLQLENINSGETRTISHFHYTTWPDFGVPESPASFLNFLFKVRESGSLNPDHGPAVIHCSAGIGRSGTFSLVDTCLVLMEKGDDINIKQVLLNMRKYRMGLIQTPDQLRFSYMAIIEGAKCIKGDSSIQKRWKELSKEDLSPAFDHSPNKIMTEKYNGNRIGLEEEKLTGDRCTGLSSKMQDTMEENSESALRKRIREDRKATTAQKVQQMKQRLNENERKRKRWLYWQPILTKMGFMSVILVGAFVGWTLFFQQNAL
# [8] = target: Receptor-type tyrosine-protein phosphatase F (Homo sapiens, UniProt P10586); assay: Inhibition of recombinant LAR (unknown origin) using OMFP as substrate after 1 hr by fluorescence assay
# [9] = target: T8, Tyrosine-protein phosphatase non-receptor type 5 (Homo sapiens, UniProt P54829); assay: Inhibition of recombinant STEP (unknown origin) using OMFP as substrate after 1 hr by fluorescence assay
# T8 sequence (P54829 whole entry): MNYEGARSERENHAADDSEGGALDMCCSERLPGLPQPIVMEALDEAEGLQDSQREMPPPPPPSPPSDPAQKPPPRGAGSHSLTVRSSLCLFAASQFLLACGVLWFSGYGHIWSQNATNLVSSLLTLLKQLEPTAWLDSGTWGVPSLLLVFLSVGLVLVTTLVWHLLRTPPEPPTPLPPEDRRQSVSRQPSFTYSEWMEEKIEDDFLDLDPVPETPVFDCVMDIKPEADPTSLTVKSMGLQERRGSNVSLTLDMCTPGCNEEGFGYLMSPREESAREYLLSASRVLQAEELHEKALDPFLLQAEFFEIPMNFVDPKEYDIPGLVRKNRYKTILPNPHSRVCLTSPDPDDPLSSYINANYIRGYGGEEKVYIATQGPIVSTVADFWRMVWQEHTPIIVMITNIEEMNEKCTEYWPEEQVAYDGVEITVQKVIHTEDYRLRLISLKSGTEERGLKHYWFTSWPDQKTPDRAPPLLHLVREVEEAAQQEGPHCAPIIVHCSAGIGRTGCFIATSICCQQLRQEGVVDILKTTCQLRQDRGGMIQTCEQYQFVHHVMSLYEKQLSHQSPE
# [10] = target: T9, Tyrosine-protein phosphatase non-receptor type 7 (Homo sapiens, UniProt P35236); assay: Inhibition of recombinant HePTP (unknown origin) using OMFP as substrate after 1 hr by fluorescence assay
# T9 sequence (P35236 whole entry): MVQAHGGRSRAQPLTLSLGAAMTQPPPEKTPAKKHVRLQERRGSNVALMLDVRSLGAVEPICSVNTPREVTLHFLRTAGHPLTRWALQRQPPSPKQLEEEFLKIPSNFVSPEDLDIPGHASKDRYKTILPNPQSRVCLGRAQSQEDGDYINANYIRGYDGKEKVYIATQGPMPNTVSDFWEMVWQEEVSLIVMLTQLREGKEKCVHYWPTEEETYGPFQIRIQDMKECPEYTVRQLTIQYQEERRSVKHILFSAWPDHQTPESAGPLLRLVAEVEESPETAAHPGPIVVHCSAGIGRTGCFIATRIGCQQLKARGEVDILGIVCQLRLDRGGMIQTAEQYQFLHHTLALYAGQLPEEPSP
# [11] = target: T1, Tyrosine-protein phosphatase non-receptor type 1; assay: Inhibition of recombinant human PTP1B assessed as hydrolysis of DiFMUP preincubated for 10 mins followed by DiFMUP addition measured after 5 mins by fluorescence assay
# [12] = target: T1, Tyrosine-protein phosphatase non-receptor type 1; assay: Competitive inhibition of PTP1B (unknown origin)
# [13] = target: Dual specificity protein phosphatase 3 (Homo sapiens, UniProt P51452); assay: Inhibition of recombinant VHR (unknown origin) using OMFP as substrate after 1 hr by fluorescence assay
# Dual specificity protein phosphatase 3, sequence (P51452 whole entry): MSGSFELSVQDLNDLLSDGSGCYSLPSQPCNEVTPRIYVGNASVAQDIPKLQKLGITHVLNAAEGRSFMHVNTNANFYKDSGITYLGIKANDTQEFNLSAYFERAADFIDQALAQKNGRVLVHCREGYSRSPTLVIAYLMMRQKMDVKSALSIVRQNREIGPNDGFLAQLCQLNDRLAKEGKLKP
# Receptor-type tyrosine-protein phosphatase F, sequence (P10586 whole entry): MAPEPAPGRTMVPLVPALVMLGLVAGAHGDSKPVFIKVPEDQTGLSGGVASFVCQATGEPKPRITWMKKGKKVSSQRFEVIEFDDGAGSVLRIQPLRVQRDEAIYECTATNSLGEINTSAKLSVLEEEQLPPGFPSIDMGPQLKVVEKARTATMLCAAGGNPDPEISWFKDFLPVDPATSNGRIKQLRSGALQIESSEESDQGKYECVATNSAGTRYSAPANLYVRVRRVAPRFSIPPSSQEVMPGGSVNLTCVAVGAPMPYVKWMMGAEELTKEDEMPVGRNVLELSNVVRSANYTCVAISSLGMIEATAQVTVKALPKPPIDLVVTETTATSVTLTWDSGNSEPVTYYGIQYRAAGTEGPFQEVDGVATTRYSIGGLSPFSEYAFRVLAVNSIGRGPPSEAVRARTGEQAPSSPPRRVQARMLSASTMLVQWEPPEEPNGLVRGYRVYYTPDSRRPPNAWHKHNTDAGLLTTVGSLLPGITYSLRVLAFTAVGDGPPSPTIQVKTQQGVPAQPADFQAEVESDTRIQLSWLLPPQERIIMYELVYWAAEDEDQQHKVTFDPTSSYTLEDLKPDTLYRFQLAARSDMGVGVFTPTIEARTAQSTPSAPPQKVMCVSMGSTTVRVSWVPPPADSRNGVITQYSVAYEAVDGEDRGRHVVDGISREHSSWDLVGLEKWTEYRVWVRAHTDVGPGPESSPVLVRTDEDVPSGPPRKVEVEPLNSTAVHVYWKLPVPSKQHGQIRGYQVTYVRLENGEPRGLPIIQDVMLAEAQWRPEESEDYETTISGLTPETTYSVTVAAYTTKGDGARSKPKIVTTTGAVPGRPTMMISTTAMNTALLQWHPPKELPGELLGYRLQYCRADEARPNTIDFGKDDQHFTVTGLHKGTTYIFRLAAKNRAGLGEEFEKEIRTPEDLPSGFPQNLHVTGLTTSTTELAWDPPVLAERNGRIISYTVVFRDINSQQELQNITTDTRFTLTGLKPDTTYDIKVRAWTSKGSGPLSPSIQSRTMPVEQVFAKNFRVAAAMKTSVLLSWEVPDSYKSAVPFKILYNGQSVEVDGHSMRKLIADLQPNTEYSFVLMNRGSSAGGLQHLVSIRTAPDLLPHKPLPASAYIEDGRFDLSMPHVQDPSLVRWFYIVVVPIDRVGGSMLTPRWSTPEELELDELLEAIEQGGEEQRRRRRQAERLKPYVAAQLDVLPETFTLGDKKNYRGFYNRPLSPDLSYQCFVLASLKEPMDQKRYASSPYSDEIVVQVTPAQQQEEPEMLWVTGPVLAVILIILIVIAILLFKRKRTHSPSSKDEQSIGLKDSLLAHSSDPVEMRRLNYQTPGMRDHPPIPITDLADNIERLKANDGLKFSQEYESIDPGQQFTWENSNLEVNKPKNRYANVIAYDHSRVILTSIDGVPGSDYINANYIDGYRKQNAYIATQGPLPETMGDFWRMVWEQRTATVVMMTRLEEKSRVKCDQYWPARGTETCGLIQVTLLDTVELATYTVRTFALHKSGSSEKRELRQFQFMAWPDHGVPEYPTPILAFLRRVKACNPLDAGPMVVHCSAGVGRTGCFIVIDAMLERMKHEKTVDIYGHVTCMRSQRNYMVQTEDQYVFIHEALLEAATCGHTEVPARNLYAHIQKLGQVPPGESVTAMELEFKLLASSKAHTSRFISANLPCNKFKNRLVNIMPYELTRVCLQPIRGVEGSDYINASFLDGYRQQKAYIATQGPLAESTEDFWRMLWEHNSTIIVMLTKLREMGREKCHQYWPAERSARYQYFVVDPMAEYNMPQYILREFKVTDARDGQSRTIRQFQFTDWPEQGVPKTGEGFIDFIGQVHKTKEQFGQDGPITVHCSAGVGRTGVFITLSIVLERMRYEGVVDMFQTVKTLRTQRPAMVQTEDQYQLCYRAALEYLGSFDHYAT
structure (smiles),measurement,setting,value
COc1ccc(-c2nnc(Nc3nc4c(F)cccc4s3)o2)cc1,IC50,[1],> 100 µM
same,IC50,[2],> 100 µM
same,IC50,[3],26 µM
same,IC50,[4],> 100 µM
same,IC50,[5],49 µM
same,IC50,[6],13 µM
same,IC50,[7],55 µM
same,IC50,[8],> 100 µM
same,IC50,[9],> 100 µM
same,IC50,[10],38 µM
CN1C(=O)/C(=C\c2ccc(OCc3ccc(C4CCCCC4)cc3)cc2)S/C1=N/c1ccc(CC(=O)O)cc1,IC50,[11],0.24 µM
CCCCCCCCCCCCCCC(=O)N[C@@H](Cc1ccc(C(F)(F)P(=O)(O)O)cc1)C(=O)N[C@@H](CC(=O)O)C(=O)N[C@@H](Cc1ccc(C(F)(F)P(=O)(O)O)cc1)C(N)=O,Ki,[12],0.026 µM
COc1ccc(-c2nnc(Nc3nc4c(OC)cccc4s3)o2)cc1,IC50,[13],2.68 µM

# Source: ChEMBL document CHEMBL3425500, “Perspective: Tyrosine phosphatases as novel targets for antiplatelet therapy” (Bioorg Med Chem, 2015)
